According to the supplement of paper PMC10307832:

Columns and labels:
Experiment in all cases: relative viability (nuclei count vs DMSO), 5 days (fraction); higher = more cells survive
Zebularine + Lapatinib = compound: O=c1ncccn1[C@@H]1O[C@H](CO)[C@@H](O)[C@H]1O [Zebularine] + CS(=O)(=O)CCNCc1ccc(-c2ccc3ncnc(Nc4ccc(OCc5cccc(F)c5)c(Cl)c4)c3c2)o1 [Lapatinib] (partner 2 µM)
In short: (§1)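 Each reported value is a median over duplicate plates. It expresses relative viability: treated-well nuclei count divided by vehicle-well nuclei count. Lung cancer cell lines in 1536-well plates were dosed by pin tool a day after seeding, alone with one drug or with a fixed anchor-drug dose plus five library-drug doses (not always all listed) in √10 steps, and nuclei were counted after 5 days.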

Zebularine + Pemetrexed = compound: O=c1ncccn1[C@@H]1O[C@H](CO)[C@@H](O)[C@H]1O [Zebularine] + Nc1nc2[nH]cc(CCc3ccc(C(=O)N[C@@H](CCC(=O)O)C(=O)O)cc3)c2c(=O)[nH]1 [Pemetrexed] (partner 0.2 µM)
In short: as §1

BI-D1870 + Foretinib = compound: CC(C)CCN1c2nc(Nc3cc(F)c(O)c(F)c3)ncc2N(C)C(=O)C1C [BI-D1870] + COc1cc2c(Oc3ccc(NC(=O)C4(C(=O)Nc5ccc(F)cc5)CC4)cc3F)ccnc2cc1OCCCN1CCOCC1 [Foretinib] (partner 0.25 µM)
In short: as §1

Zebularine + OSI-027 = compound: O=c1ncccn1[C@@H]1O[C@H](CO)[C@@H](O)[C@H]1O [Zebularine] + COc1cccc2cc(-c3nc([C@H]4CC[C@H](C(=O)O)CC4)n4ncnc(N)c34)[nH]c12 [OSI-027] (partner 0.5 µM)
In short: as §1

Row | Cell Line | relative viability (Zebularine + Lapatinib; first compound 1 µM) | relative viability (Zebularine + Lapatinib; first compound 3.162 µM) | relative viability (Zebularine + Lapatinib; first compound 10 µM) | relative viability (Zebularine + Lapatinib; first compound 31.62 µM) | relative viability (Zebularine + Lapatinib; first compound 100 µM) | relative viability (Zebularine + Pemetrexed; first compound 1 µM) | relative viability (Zebularine + Pemetrexed; first compound 3.162 µM) | relative viability (Zebularine + Pemetrexed; first compound 10 µM) | relative viability (Zebularine + Pemetrexed; first compound 31.62 µM) | relative viability (Zebularine + Pemetrexed; first compound 100 µM) | relative viability (BI-D1870 + Foretinib; first compound 0.04 µM) | relative viability (BI-D1870 + Foretinib; first compound 0.1265 µM) | relative viability (BI-D1870 + Foretinib; first compound 0.4 µM) | relative viability (BI-D1870 + Foretinib; first compound 1.265 µM) | relative viability (BI-D1870 + Foretinib; first compound 4 µM) | relative viability (Zebularine + OSI-027; first compound 1 µM) | relative viability (Zebularine + OSI-027; first compound 3.162 µM) | relative viability (Zebularine + OSI-027; first compound 10 µM) | relative viability (Zebularine + OSI-027; first compound 31.62 µM) | relative viability (Zebularine + OSI-027; first compound 100 µM)
1 | 201T | 1.05 | 1.09 | 0.902 | 1.06 | 1.11 | 0.359 | 0.343 | 0.35 | 0.311 | 0.271 | 1.22 | 1.02 | 1 | 1.29 | 1.05 | 0.602 | 0.691 | 0.517 | 0.592 | 0.378
2 | A549 | 1.16 | 0.941 | 0.438 | 0.698 | 0.2 |  |  |  |  |  | 1.08 | 0.958 | 1.01 | 0.963 | 0.747 |  |  |  |  | 
3 | A-427 | 1.13 | 1.01 | 0.691 | 0.58 | 0.256 | 1.08 | 0.991 | 0.95 | 0.538 | 0.294 | 1.14 | 0.895 | 0.991 | 1.11 | 1.13 | 0.51 | 0.403 | 0.347 | 0.344 | 0.268
4 | ABC-1 | 1.05 | 1.08 | 0.655 | 0.642 | 0.605 |  |  |  |  |  | 1.16 | 0.984 | 1.1 | 1.42 | 0.913 | 0.522 | 0.413 | 0.401 | 0.367 | 0.443
5 | BEN | 0.661 | 0.491 | 0.347 | 0.311 | 0.22 | 0.943 | 0.636 | 0.584 | 0.562 | 0.306 | 0.654 | 0.609 | 0.76 | 1.16 | 0.77 | 0.544 | 0.29 | 0.279 | 0.24 | 0.272
6 | Calu-6 | 1.17 | 0.99 | 0.604 | 0.813 | 0.347 |  |  |  |  |  | 0.929 | 0.789 | 0.87 | 0.774 | 0.561 |  |  |  |  | 
7 | ChaGo-K-1 |  |  |  |  |  | 0.269 | 0.257 | 0.254 | 0.242 | 0.203 | 1.01 | 0.85 | 0.857 | 1.04 | 0.956 | 0.66 | 0.593 | 0.331 | 0.239 | 0.23
8 | EBC-1 | 0.244 | 0.197 |  | 0.205 | 0.212 |  |  |  |  |  | 0.103 | 0.119 | 0.105 | 0.136 | 0.0927 |  |  |  |  | 
9 | HCC-44 | 1.07 | 1.07 | 0.566 | 0.951 | 0.454 | 0.723 | 0.625 | 0.646 | 0.679 | 0.445 |  |  |  |  |  | 0.627 | 0.462 | 0.435 | 0.398 | 0.364
10 | IA-LM | 0.908 | 1.07 |  | 0.773 | 0.599 |  |  |  |  |  | 1.24 | 1.07 | 1.32 | 1.03 | 0.977 |  |  |  |  | 
11 | LCLC-103H |  |  |  |  |  | 0.459 | 0.443 | 0.388 | 0.504 | 0.443 | 0.842 | 0.662 | 0.777 | 0.866 | 0.566 | 0.474 | 0.434 | 0.321 | 0.414 | 0.462
12 | NCI-H441 |  |  |  |  |  | 0.274 | 0.248 | 0.302 | 0.185 | 0.166 | 1.08 | 0.787 | 1.05 | 1.05 | 0.804 | 0.817 | 0.595 | 0.401 | 0.25 | 0.234
13 | NCI-H522 |  |  |  |  |  | 0.888 | 1.1 | 0.967 | 1.03 | 0.95 |  |  |  |  |  | 0.769 | 0.544 | 0.683 | 0.676 | 0.707
14 | NCI-H727 | 0.724 | 0.797 | 0.65 | 0.948 | 0.772 |  |  |  |  |  | 0.793 | 0.931 | 0.883 | 0.871 | 0.739 | 0.52 | 0.54 | 0.522 | 0.674 | 0.446
15 | NCI-H1299 | 0.965 | 0.937 | 0.619 | 0.968 | 0.493 |  |  |  |  |  | 1.13 | 1.07 | 1.08 | 1.08 | 0.952 |  |  |  |  | 
16 | NCI-H1623 |  |  |  |  |  |  |  |  |  |  | 0.913 | 0.843 | 0.801 | 0.903 | 0.794 | 0.428 | 0.397 | 0.407 | 0.561 | 0.411
17 | NCI-H1648 |  |  |  |  |  | 0.652 | 0.613 | 0.518 | 0.804 | 0.683 |  |  |  |  |  | 0.27 | 0.314 | 0.244 | 0.253 | 0.249
18 | NCI-H1703 | 0.994 | 0.979 |  | 1.52 | 0.952 |  |  |  |  |  | 0.381 |  | 0.295 | 0.355 | 0.385 |  |  |  |  | 
19 | NCI-H1792 | 0.978 | 0.879 | 0.416 | 0.428 | 0.284 | 1.04 | 0.71 | 0.24 | 0.307 | 0.271 |  |  |  |  |  | 0.67 | 0.668 | 0.318 | 0.384 | 0.366
20 | NCI-H2342 |  |  |  |  |  | 0.795 | 0.73 | 0.572 | 0.749 | 0.628 | 1.04 | 1 | 1.11 | 1.18 | 1.23 | 0.709 | 0.621 | 0.589 | 0.626 | 0.627
21 | SW 900 |  |  |  |  |  | 0.534 | 0.483 |  | 0.53 | 0.41 | 0.855 | 0.949 | 0.893 | 0.751 | 1.22 | 0.842 | 0.621 | 0.306 | 0.543 | 0.427
